Reference: patent publication US8273761B2, “Tricyclic compound and medical use thereof” (Takeda Pharmaceutical Company Limited, priority 2006, dated 2012)

target: T1, human melatonin 1 receptors (human MT1 receptors) (Homo sapiens, UniProt P48039); assay: Melatonin receptor binding inhibitory test (MT1); details: 2-[125I] Iodomelatonin 400 pM solution, membrane fraction of CHO-hMelR7 cells, 25° C. for 2.5 hr
T1 construct: expressed in transfected cells
Method: Biochim Biophys Acta. Vol. 1219(2), pp. 251-259, 1994) to give plasmid pAKKO-hMelR7 for animal cell expression. CHO/dhfr-cells (ATCC, #CRL-9096) were plated at a concentration of 0.3×10^6 cells/dish in a 6 cm culture dish (Becton Dickinson), and cultured under the conditions of 37° C., 5% CO2 for 48 hr. The cells were transfected with pAKKO-hMelR7 plasmid DNA (5 μg) using […] Transfection Kit (Amersham, #27-9268-01). The transfected cells were cultured in Dulbecco's modified Eagle medium (DMEM) (Sigma, #D6046) containing 10% dialyzed FBS ([…]), 1× Non-Essential Amino Acid (Invitrogen, #11140-050) and 50 μg/mL Gentamycin (Invitrogen, #15750-060), and the cell line that stably expressed the plasmid gene was selected. By a receptor binding assay using 2-[^125I] […] (3) Preparation of Cellular Membrane Fraction of CHO Cell (CHO-hMelR7 and CHO-hMT2) Stably Expressing Human MT1 and MT2 Receptors CHO-hMelR7 and CHO-hMT2 cells were plated using Cellfactory (Nunc, #170009) under the conditions of 1×10^8 cells/2000 mL/flask. The cells were grown to confluent, and recovered by the following method. As the medium for CHO-hMelR7 and CHO-hMT2, MEM α containing 10% FBS and penicillin/streptomycin was used. 300 ng/mL of geneticin was added to the medium for CHO-hMT2. The medium was discarded, cells were washed twice with 200 mL of EDTA/PBS(-), 200 mL of EDTA/PBS(-) was further added, and the cells were stood still at room temperature for 20 min until they were released. The cells were recovered in four 50 mL tubes (Becton Dickinson, #352070), and centrifuged at 1,500 rpm for 10 min at 4° C. using a low speed cooling centrifuge (Hitachi, CF7D2). The supernatant was discarded, the pellets in the four tubes were suspended in 10 mL of PBS(-), and combined in one tube (Becton Dickinson, #352070). The mixture was further centrifuged at 1,500 rpm for 10 min at 4° C., and the obtained pellets were suspended in 20 mL of ice-cooled homogenizing buffer [10 mM NaHCO3, 5 mM EDTA, Protease inhibitor Complete (Roche), pH 7.4]. The cell suspension was homogenized 3 times using a polytron homogenizer at 20,000 rpm for 30 sec. The obtained homogenate was centrifuged (2,000 rpm, 10 min, 4° C.) using a low speed cooling centrifuge. The supernatant was recovered in an ultracentrifugation tube and ultracentrifuged (40,000 rpm, 60 min, 4° C.) using an ultracentrifuge (Beckman, […]). To the obtained pellets was added a suspending buffer [50 mM Tris-HCl, 1 mM EDTA, Protease inhibitor Complete (Roche), pH 7.4], and the pellets were suspended by pipetting. The protein concentration of this suspension was measured, diluted to 2 mg/mL to give cellular membrane fractions of CHO-hMelR7 and CHO-hMT2 cells. […] Protein was quantified using BCA protein assay kit (Pierce) with BSA as the standard. (4) Preparation of Membrane Fraction Suspension Immediately before use, the membrane fractions of CHO-hMelR7 and CHO-hMT2 cells of the above-mentioned (3) were diluted 20-fold with assay buffer (50 mM Tris-HCl, pH 7.7). (5) Preparation of 2-[^125I] […] (6) Binding Reaction The assay buffer (80 μL) of the above-mentioned (4) was added to each well of a 96-well plate (type 3363, Corning). […] (7) Measurement Using a cell harvester (PerkinElmer), the binding reaction mixture in each well of the 96-well plate was transferred to a treated (immersed in 50 mM Tris, pH 7.7 in advance) filter plate (UniFilter GF/C, PerkinElmer) and filtered. After filtration, the plate was washed 4 times with the assay buffer, and dried in a dryer (42° C.) for 2 hr or more. 25 μL of a liquid scintillator (MicroScint O, PerkinElmer) was added to each well of the filter plate after drying, and the luminescence of scintillator was measured by TopCount (PerkinElmer) for 1 min. Specific binding is a value obtained by subtracting nonspecific binding from the total binding.

T1 sequence (P48039 whole entry): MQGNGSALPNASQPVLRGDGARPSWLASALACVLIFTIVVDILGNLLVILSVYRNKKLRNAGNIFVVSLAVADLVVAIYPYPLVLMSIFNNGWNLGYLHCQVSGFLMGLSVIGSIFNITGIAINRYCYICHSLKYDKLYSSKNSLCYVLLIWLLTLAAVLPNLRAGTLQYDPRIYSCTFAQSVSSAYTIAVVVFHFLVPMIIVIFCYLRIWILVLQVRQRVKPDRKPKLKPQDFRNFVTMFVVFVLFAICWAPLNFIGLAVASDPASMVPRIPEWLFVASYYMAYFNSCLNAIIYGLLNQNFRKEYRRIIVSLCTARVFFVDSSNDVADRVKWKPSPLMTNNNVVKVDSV

Compound | IC50 [nM]
CCC(=O)NCCC1CCc2cnc3c(c21)CCO3 (stereo not drawn) [Example 22, N-[2-(1,6,7,8-tetrahydro-2H-cyclopenta[d]furo[2,3-b]pyridin-8-yl)ethyl]propanamide] | ≤ 100
CCCC(=O)NCCC1CCc2cnc3c(c21)CCO3 (stereo not drawn) [Example 25, N-[2-(1,6,7,8-tetrahydro-2H-cyclopenta[d]furo[2,3-b]pyridin-8-yl)ethyl]butanamide] | ≤ 100
CCC(=O)NCCC1=CCc2cnc3c(c21)CCO3 [Example 29, N-[2-(1,6-dihydro-2H-cyclopenta[d]furo[2,3-b]pyridin-8-yl)ethyl]propanamide] | ≤ 100
CC(=O)NCCC1=C(C(C)C)Cc2cnc3c(c21)CCO3 [Example 30, N-[2-(7-isopropyl-1,6-dihydro-2H-cyclopenta[d]furo[2,3-b]pyridin-8-yl)ethyl]acetamide] | ≤ 100
CCC(=O)NCCC1=C(C(C)C)Cc2cnc3c(c21)CCO3 [Example 31, N-[2-(7-isopropyl-1,6-dihydro-2H-cyclopenta[d]furo[2,3-b]pyridin-8-yl)ethyl]propanamide] | ≤ 100
CCc1nn2ccc3c(c2c1C(C)CNC(C)=O)CCO3 (stereo not drawn) [Example 37, N-[2-(2-ethyl-8,9-dihydrofuro[3,2-c]pyrazolo[1,5-a]pyridin-1-yl)propyl]acetamide] | ≤ 100
CCC(=O)NCC(C)c1c(CC)nn2ccc3c(c12)CCO3 (stereo not drawn) [Example 38, N-[2-(2-ethyl-8,9-dihydrofuro[3,2-c]pyrazolo[1,5-a]pyridin-1-yl)propyl]propanamide] | ≤ 100
CCc1nn2ccc3oc(C)cc3c2c1CCNC(C)=O [Example 39, N-[2-(2-ethyl-8-methylfuro[3,2-c]pyrazolo[1,5-a]pyridin-1-yl)ethyl]acetamide] | ≤ 100

The remaining lines, values ahead:

IC50 [nM] | Compound
≤ 100 | CC(=O)NCCC1CCc2cnc3c(c21)CCO3 (single isomer, unassigned) [Example 20, optically active N-[2-(1,6,7,8-tetrahydro-2H-cyclopenta[d]furo[2,3-b]pyridin-8-yl)ethyl]acetamide]
≤ 100 | CCC(=O)NCCC1CCc2cnc3c(c21)CCO3 (single isomer, unassigned) [Example 23, optically active N-[2-(1,6,7,8-tetrahydro-2H-cyclopenta[d]furo[2,3-b]pyridin-8-yl)ethyl]propanamide]
≤ 100 | CCC(=O)NCCc1c(-c2ccccc2)nn2ccc3occc3c12 [Example 2, N-[2-(2-phenylfuro[3,2-c]pyrazolo[1,5-a]pyridin-1-yl)ethyl]propanamide]
≤ 100 | CC(=O)NCCc1cnn2ccc3c(c12)CCO3 [Example 3, N-[2-(8,9-dihydrofuro[3,2-c]pyrazolo[1,5-a]pyridin-1-yl)ethyl]acetamide]
≤ 100 | CCC(=O)NCCc1cnn2ccc3c(c12)CCO3 [Example 4, N-[2-(8,9-dihydrofuro[3,2-c]pyrazolo[1,5-a]pyridin-1-yl)ethyl]propanamide]
≤ 100 | CCCC(=O)NCCc1cnn2ccc3c(c12)CCO3 [Example 5, N-[2-(8,9-dihydrofuro[3,2-c]pyrazolo[1,5-a]pyridin-1-yl)ethyl]butanamide]
≤ 100 | CCC(=O)NCCc1c(-c2ccccc2)nn2ccc3c(c12)CCO3 [Example 8, N-[2-(2-phenyl-8,9-dihydrofuro[3,2-c]pyrazolo[1,5-a]pyridin-1-yl)ethyl]propanamide]
≤ 100 | CC(=O)NCCc1c(-c2ccc(F)cc2)nn2ccc3c(c12)CCO3 [Example 15, N-{2-[2-(4-fluorophenyl)-8,9-dihydrofuro[3,2-c]pyrazolo[1,5-a]pyridin-1-yl]ethyl}acetamide]
≤ 100 | CCC(=O)NCCc1c(-c2ccc(F)cc2)nn2ccc3c(c12)CCO3 [Example 16, N-{2-[2-(4-fluorophenyl)-8,9-dihydrofuro[3,2-c]pyrazolo[1,5-a]pyridin-1-yl]ethyl}propanamide]
≤ 100 | CC(=O)NCCc1c(-c2ccccc2)cn2ccc3c(c12)CCO3 [Example 17, N-[2-(8-phenyl-1,2-dihydrofuro[2,3-g]indolizin-9-yl)ethyl]acetamide]
